Results on eleven compounds are retold here after patent US20100137346A1, “DESFE[…] ACTINIDE DEC[…]” (priority 2006, published 2010).

The assay is described as follows: Chelator-induced uranium excretion (urine + bile, 24 h) in bile duct-cannulated rat model. The class given is in vivo. As to the method:
Desferrithiocin Analogue Induced Excretion of Uranium. In order to compare results with previous chelator-induced iron excretion data, the uranium clearance studies were carried out in a bile duct-cannulated rat model. The animals were given uranyl acetate dihydrate SC at a dose of 5 mg/kg (the actual dose of uranium is 2.8 mg/kg). Bile and urine samples were collected for 24 hours after dosing. Kidneys were removed from selected animals and tissue uranium concentration measured. At least three animals were utilized in each experimental group. Data from two separate control studies (uranyl acetate/ no chelator) have now been combined for a total of 14 control animals. All uranium concentrations were measured using ICPMS. The data are reported as the total quantity of uranium excreted [urine +bile]; the mode of excretion [urine/bile] is also given. In addition the percentage of the administered dose of uranium cleared and chelator-induced uranium excretion vs the controls is also given. Four positive controls were evaluated: DTPA (13, Table 1) given as its trisodium calcium salt, DFO (14), N,N′-bis(2hydroxybenzyl)ethylenediamine-N,N′-diacetic acid, monosodium salt (NaHBED, 15) and the hydroxypyridone CP94 (16) shown to bind uranium [Pashalidis, et al., Effective complex formation in the interaction of 1,2-dimethyl-3-hydroxypyrid-4-one (Deferiprone or L1) with uranium(VI), Journal of Radioanalytical and Nuclear Chemistry 1999; 242:181-184.] The total metal cleared after 24 h in control rats was 10% of the administered dose. When DTPA, 13, was given IP or PO at 300 μmol/kg immediately after uranium, the excretion was 17% and 8% of the administered dose respectively (p>0.05). However, when the drug was given IP at a dose of 600 μmol/kg immediately post-metal, the uranium excretion was significant, 20% (p<0.005). This is consistent with previously published data using a similar animal model.[Domingo, et al., Comparative effects of the chelators sodium 4,5-dihydroxybenzene-1,3-disulfonate (Tiron) and diethylenetriaminepentaacetic acid (DTPA) on acute uranium nephrotoxicity in rats, Toxicology 1997; 118:49-59] DFO (14) and CP94 (16) given IP immediately post uranyl acetate were ineffective.
Desferrithiocin Analogue-Induced Excretion of Uranium. In order to compare results with previous chelator-induced iron excretion data, the uranium clearance studies were carried out in a bile duct-cannulated rat model. The animals were given uranyl acetate dihydrate SC at a dose of 5 mg/kg (the actual dose of uranium is 2.8 mg/kg). Bile and urine samples were collected for 24 hours after dosing. Kidneys were removed from selected animals and tissue uranium concentration measured. At least three animals were utilized in each experimental group. Data from two separate control studies (uranyl acetate/ no chelator) are combined for a total of 14 control animals. All uranium concentrations were measured using ICPMS. The data are reported as the total quantity of uranium excreted [urine +bile]; the mode of excretion [urine/bile] is also given. In addition the percentage of the administered dose of uranium cleared and chelator-induced uranium excretion vs the controls is also given. Four positive controls were evaluated: DTPA (1, Table 1) given as its trisodium calcium salt, DFO (2), N,N -bis(2-hydroxybenzyl)ethylenediamine-N,N-diacetic acid, monosodium salt (NaHBED, 3) and the hydroxypyridone CP94 (4) shown to bind uranium. The total metal cleared after 24 h in control rats was 10% of the administered dose. When DTPA, 1, was given IP or PO at 300 μmol/kg immediately after uranium, the excretion was 17% and 8% of the administered dose respectively (p>0.05). However, when the drug was given IP at a dose of 600 μmol/kg immediately post metal, the uranium excretion was significant, 20% (p<0.005). This is consistent with previously published data using a similar animal model.^2 DFO (2) and CP94 (4) given IP immediately post uranyl acetate were ineffective.

[1] abbreviates: Rattus norvegicus, ip, 24 h, 300 μmol/kg IP 0.5 h Post, read-out: Chelator-Induced U Excretion/Control.
[2] abbreviates: Rattus norvegicus, ip, 24 h, 300 μmol/kg IP Immediate, read-out: Chelator-Induced U Excretion/Control.
The mark [3] stands for this setting: Rattus norvegicus, po, 24 h, 300 μmol/kg PO Immediate, read-out: Chelator-Induced U Excretion/Control.

Like-named read-outs stand apart in the source and are kept apart here.

For `O=C(O)CN(CCN(CC(=O)O)CC(=O)O)CCN(CC(=O)O)CC(=O)O` [drawing 16], for the setting “300 μmol/kg IP Immediate”, the “% of Administered Dose Cleared” value is 17%, the “Chelator-Induced U Excretion/Control” value was 1.7, the “Uranium Excretion” value was determined as 469 ± 271 µg/kg and the “Uranium Excretion [urine/bite]” value is given as 99/1. Also, where the note is “300 μmol/kg PO Immediate”, the “% of Administered Dose Cleared” value stood at 8%, the “Chelator-Induced U Excretion/Control” value is 0.8, the “Uranium Excretion” value was 235 ± 205 µg/kg and the “Uranium Excretion [urine/bite]” value is recorded as 100/0. For the same compound, under “600 μmol/kg IP Immediate”, the “% of Administered Dose Cleared” value is 20%, the “Chelator-Induced U Excretion/Control” value turned out to be 2.0, the “Uranium Excretion” value was found to be 548 ± 147 µg/kg and the “Uranium Excretion [urine/bite]” value is on record as 100/0.

On to `CC1(C)SC(c2ccccc2O)=N[C@@H]1C(=O)O` [drawing 9], for which the “% of Administered Dose Cleared” value turned out to be 7% (300 μmol/kg IP 0.5 h Post) and 26% (300 μmol/kg IP Immediate). Also, the “Uranium Excretion” value was found to be 200 ± 47 µg/kg (300 μmol/kg IP 0.5 h Post) and 743 ± 189 µg/kg (300 μmol/kg IP Immediate). In addition, the “Uranium Excretion [urine/bite]” value is, setting by setting: (300 μmol/kg IP 0.5 h Post) “[37/63]”; (300 μmol/kg IP Immediate) 8/92. Further, the response vs control in vivo at 300 µmol/kg came to 70% under setting [1] and 260% under setting [2].

For the compound `CC1(C)SC(c2ccccc2O)=NC1C(=O)O` (stereo in doubt) [Compound 17, (S)-4,5-dihydro-5,5-dimethyl-2-(2-hydroxyphenyl)-4-thiazolecarboxylic acid], where the note is “300 μmol/kg IP Immediate”, the “% of Administered Dose Cleared” value is listed as 26%. Further, the “uranium excretion, in words” value (IP 300 μmol/kg, given 0.5 h post metal) is recorded as “insignificant”.

In the case of `C[C@@]1(C(=O)O)CSC(c2ccc(O)cc2O)=N1` [drawing 13], the “% of Administered Dose Cleared” value (300 μmol/kg IP Immediate) came out at 19%.

Take `COc1ccc(C2=N[C@](C)(C(=O)O)CS2)c(O)c1`: where the note is “300 μmol/kg IP 0.5 h Post”, the “% of Administered Dose Cleared” value worked out at 15%, the “Uranium Excretion” value was 413 ± 148 µg/kg and the “Uranium Excretion [urine/bite]” value is 37/63. Besides, where the note is “300 μmol/kg IP Immediate”, the “% of Administered Dose Cleared” value was 20%, the “Uranium Excretion” value was 568 ± 133 µg/kg and the “Uranium Excretion [urine/bite]” value is recorded as 59/41. Moreover, the response vs control in vivo at 300 µmol/kg under setting [1] was 150%. The response vs control in vivo at 300 µmol/kg under setting [2] came to 200%.

With `COc1ccc(C2=N[C@@](C)(C(=O)O)CS2)c(O)c1` [drawing 8], under “300 μmol/kg IP 0.5 h Post”, the “% of Administered Dose Cleared” value is 15%, the “Chelator-Induced U Excretion/Control” value amounted to 1.5, the “Uranium Excretion” value was 413 ± 148 µg/kg and the “Uranium Excretion [urine/bite]” value is “[37/63]”. Moreover, for the setting “300 μmol/kg IP Immediate”, the “Chelator-Induced U Excretion/Control” value is on record as 2.0, the “Uranium Excretion” value came out at 568 ± 133 µg/kg and the “Uranium Excretion [urine/bite]” value is recorded as 59/41.

Take `COc1ccc(C2=N[C@H](C(=O)O)CS2)c(O)c1`: the “% of Administered Dose Cleared” value is listed as 33% (300 μmol/kg IP 0.5 h Post); 29% (300 μmol/kg IP 0.5 h Pre); 30% (300 μmol/kg IP 2 h Post); 16% (300 μmol/kg IP 4 h Post); 30% (300 μmol/kg IP Immediate); 18% (300 μmol/kg PO 2 h Post). For the same compound, the “% of Administered Dose Cleared” value turned out to be 23% (300 μmol/kg PO Immediate), 40% (300 μmol/kg SC Immediate), 25% (600 μmol/kg PO 0.5 h Post) and 26% (600 μmol/kg PO 1 h Post). Moreover, the “Uranium Excretion” value worked out at 917 ± 177 µg/kg (300 μmol/kg IP 0.5 h Post); 815 ± 211 µg/kg (300 μmol/kg IP 0.5 h Pre); 847 ± 335 µg/kg (300 μmol/kg IP 2 h Post); 444 ± 119 µg/kg (300 μmol/kg IP 4 h Post); 838 ± 166 µg/kg (300 μmol/kg IP Immediate); 507 ± 182 µg/kg (300 μmol/kg PO 2 h Post). In addition, the “Uranium Excretion” value runs as follows: (300 μmol/kg PO Immediate) 642 ± 101 µg/kg; (300 μmol/kg SC Immediate) 1130 ± 246 µg/kg; (600 μmol/kg PO 0.5 h Post) 698 ± 166 µg/kg; (600 μmol/kg PO 1 h Post) 723 ± 126 µg/kg. The “Uranium Excretion [urine/bite]” value is on record as 16/84 (300 μmol/kg IP 0.5 h Post); 48/52 (300 μmol/kg IP 0.5 h Pre); 46/54 (300 μmol/kg IP 2 h Post); 66/34 (300 μmol/kg IP 4 h Post); 64/36 (300 μmol/kg IP Immediate); 53/47 (300 μmol/kg PO 2 h Post). Moreover, the “Uranium Excretion [urine/bite]” value is on record as 43/57 (300 μmol/kg PO Immediate), 13/87 (300 μmol/kg SC Immediate), 24/76 (600 μmol/kg PO 0.5 h Post) and 28/72 (600 μmol/kg PO 1 h Post). In addition, the response vs control in vivo at 300 µmol/kg runs as follows: under setting [1], 330%; (Rattus norvegicus, ip, 24 h, 300 μmol/kg IP 0.5 h Pre, read-out: Chelator-Induced U Excretion/Control) 290%; (Rattus norvegicus, ip, 24 h, 300 μmol/kg IP 2 h Post, read-out: Chelator-Induced U Excretion/Control) 300%; (Rattus norvegicus, ip, 24 h, 300 μmol/kg IP 4 h Post, read-out: Chelator-Induced U Excretion/Control) 160%; under setting [2], 300%; (Rattus norvegicus, po, 24 h, 300 μmol/kg PO 2 h Post, read-out: Chelator-Induced U Excretion/Control) 180%. Besides, the response vs control in vivo at 300 µmol/kg was 230% under setting [3] and 400% (Rattus norvegicus, sc, 24 h, 300 μmol/kg SC Immediate, read-out: Chelator-Induced U Excretion/Control). The response vs control in vivo at 600 µmol/kg (Rattus norvegicus, po, 24 h, 600 μmol/kg PO 0.5 h Post, read-out: Chelator-Induced U Excretion/Control) was 250% and the response vs control in vivo at 600 µmol/kg (Rattus norvegicus, po, 24 h, 600 μmol/kg PO 1 h Post, read-out: Chelator-Induced U Excretion/Control) was found to be 260%.

For the compound `O=C([O-])CN(CCN(CC(=O)O)Cc1ccccc1O)Cc1ccccc1O.[Na+]` [drawing 6], under “150 μmol/kg IP Immediate”, the “% of Administered Dose Cleared” value is on record as 17%, the “Uranium Excretion” value was determined as 483 ± 119 µg/kg and the “Uranium Excretion [urine/bite]” value was 97/3. For the same compound, for the setting “Rattus norvegicus, ip, 24 h, 150 μmol/kg IP Immediate, read-out: Chelator-Induced U Excretion/Control”, the response vs control in vivo at 150 µmol/kg turned out to be 170%.

For `O=C(O)CN(CCN(CC(=O)O)CC(=O)O)CCN(CC(=O)O)CC(=O)O` [drawing 4], the “% of Administered Dose Cleared” value runs as follows: (300 μmol/kg IP Immediate) 17%; (300 μmol/kg PO Immediate) 6%; (600 μmol/kg IP Immediate) 20%. Further, the “Uranium Excretion” value was found to be 469 ± 271 µg/kg (300 μmol/kg IP Immediate), 235 ± 205 µg/kg (300 μmol/kg PO Immediate) and 546 ± 147 µg/kg (600 μmol/kg IP Immediate). Moreover, the “Uranium Excretion [urine/bite]” value runs as follows: (300 μmol/kg IP Immediate) 99/1; (300 μmol/kg PO Immediate) “[100/0]”; (600 μmol/kg IP Immediate) “[100/0]”. The response vs control in vivo at 300 µmol/kg under setting [2] amounted to 170% and the response vs control in vivo at 300 µmol/kg under setting [3] is 80%. For the same compound, the response vs control in vivo at 600 µmol/kg (Rattus norvegicus, ip, 24 h, 600 μmol/kg IP Immediate, read-out: Chelator-Induced U Excretion/Control) turned out to be 200%.

As to `COCCOCCOCCOc1ccc(C2=N[C@](C)(C(=O)O)CS2)c(O)c1`, where the note is “300 μmol/kg IP Immediate”, the “% of Administered Dose Cleared” value is reported as 22%, the “Uranium Excretion” value was 626 ± 123 µg/kg and the “Uranium Excretion [urine/bite]” value is on record as 35/65. Under setting [2], the response vs control in vivo at 300 µmol/kg was found to be 220%.

For the compound `C[C@@]1(C(=O)O)CSC(c2ccc(O)cc2O)=N1` [drawing 10], where the note is “300 μmol/kg IP Immediate”, the “% of Administered Dose Cleared” value amounted to 19%, the “Uranium Excretion” value stood at 523 ± 180 µg/kg and the “Uranium Excretion [urine/bite]” value is recorded as 92/8. The response vs control in vivo at 300 µmol/kg under setting [2] was 190%.
